Source: patent US4894376A, “Methods of treating diseases characterized by hyperexcitability of neurons” (Trustees of the University of Pennsylvania, priority 1988, dated 1990)

Assays:
L type calcium channel = assay: Patch clamp (voltage clamp) of L type calcium channel current in neuroblastoma cells; assay type: cell-based, mouse
neuroblastoma cell = assay: Current clamp measurement of membrane potential of a neuroblastoma cell; assay type: cell-based, mouse
T type calcium channel [1] = assay: Patch clamp (voltage clamp) of T type calcium channel current in neuroblastoma cells; assay type: cell-based, mouse; details: for T type calcium channel current: 1 uM, neuroblastoma cells, FIG. 3
frog atrial cells = details: cited from earlier work
SA node = details: cited from earlier work
right atrium = details: spontaneously beating right atrium; cited from earlier work
T type calcium channel [2] = assay: Patch clamp (voltage clamp) of T type calcium channel current in chick dorsal root ganglion neurons; assay type: cell-based, chick (gallus domesticus); details: DRG neurons; FIG. 2B
[3] = tested on: L and T type calcium channels; details: cited from earlier work

Compound: N=C(NCc1ccccc1)NC(=O)c1nc(Cl)c(N)nc1N [benzamil]
- L type current (L type calcium channel; 1 uM, neuroblastoma cells, FIG. 3): without suppressing the L type current
- regenerative depolarization (neuroblastoma cell; 5 uM, after 1 uM TTX, current pulses of 40 picoamps, FIG. 4): further decreased the regenerative depolarization
- T type calcium channel current (T type calcium channel [1]): reversably suppresses the bulk of the T type calcium channel current
- increase of T channel activity by addition of a benzyl moiety to the guanidine portion of amiloride (T type calcium channel [1]; relative to amiloride): about fifty

Compound: N=C(NCc1ccc(Cl)c(Cl)c1)NC(=O)c1nc(Cl)c(N)nc1N [3,4-dichlorobenzamil]
- calcium currents (frog atrial cells): inhibited calcium currents in frog atrial cells

Compound: N=C(N)NC(=O)c1nc(Cl)c(N)nc1N [amiloride]
- L type calcium channel current (slow inactivating current) (L type calcium channel; N1E-115 cells, held at -90 mV, depolarization to +20 mV, FIG. 1A, 1D): does not appreciably suppress this L type channel current
- neuronal excitability near threshold (neuroblastoma cell; 250 uM, current pulse to threshold and slightly above threshold, FIG. 5): suppress neuronal excitability at membrane potential near the threshold for regenerative depolarization
- depolarization well above threshold (neuroblastoma cell; 250 uM, higher degree of stimulation, FIG. 5): does not block the depolarization at higher degree of stimulation
- chronotropic action (SA node): negative chronotropic action on the SA node
- T type calcium channel current (transient current) (T type calcium channel [1]; N1E-115 cells, held at -90 mV, depolarization to -20 mV, FIG. 1A, 1C): suppresses this T type channel current
- frequency of contractions (right atrium): decreased the frequency of contractions of the spontaneously beating right atrium
- T type calcium channel current (T type calcium channel [2]): completely suppressed the T type calcium channel current

Compound: COc1ccc(CNC(=N)NC(=O)c2nc(Cl)c(N)nc2N)cc1OC [Dimethoxybenzamil, 3,4-dimethoxybenzamil]
- T type calcium channel current (T type calcium channel [1]): similarly suppresses the T type current

Compound: COc1ccc([C@@H]2Sc3ccccc3N(CCN(C)C)C(=O)[C@@H]2OC(C)=O)cc1 [diltiazem]
- calcium channel type blocked [3]: block both the L and T type calcium channels

Compound: COc1ccc(CCN(C)CCCC(C#N)(c2ccc(OC)c(OC)c2)C(C)C)cc1OC (stereo not shown) [Verapamil, verapamil]
- calcium channel type blocked [3]: block both the L and T type calcium channels

Compound: COC(=O)C1=C(C)NC(C)=C(C(=O)OC)C1c1ccccc1[N+](=O)[O-] [Nifidepine, nifidepine]
- calcium channel type blocked [3]: blocks only the L type calcium channel
